“Also recorded” adds a separate entry of the source.
Legend:
ligase IIIβ = biological target: T1, ligase IIIβ (Homo sapiens, UniProt P49916); assay: Ligation assay, DNA ligase IIIβ; assay type: biochemical
T1 sequence (P49916 43-949 isoform P49916-2 limits assumed): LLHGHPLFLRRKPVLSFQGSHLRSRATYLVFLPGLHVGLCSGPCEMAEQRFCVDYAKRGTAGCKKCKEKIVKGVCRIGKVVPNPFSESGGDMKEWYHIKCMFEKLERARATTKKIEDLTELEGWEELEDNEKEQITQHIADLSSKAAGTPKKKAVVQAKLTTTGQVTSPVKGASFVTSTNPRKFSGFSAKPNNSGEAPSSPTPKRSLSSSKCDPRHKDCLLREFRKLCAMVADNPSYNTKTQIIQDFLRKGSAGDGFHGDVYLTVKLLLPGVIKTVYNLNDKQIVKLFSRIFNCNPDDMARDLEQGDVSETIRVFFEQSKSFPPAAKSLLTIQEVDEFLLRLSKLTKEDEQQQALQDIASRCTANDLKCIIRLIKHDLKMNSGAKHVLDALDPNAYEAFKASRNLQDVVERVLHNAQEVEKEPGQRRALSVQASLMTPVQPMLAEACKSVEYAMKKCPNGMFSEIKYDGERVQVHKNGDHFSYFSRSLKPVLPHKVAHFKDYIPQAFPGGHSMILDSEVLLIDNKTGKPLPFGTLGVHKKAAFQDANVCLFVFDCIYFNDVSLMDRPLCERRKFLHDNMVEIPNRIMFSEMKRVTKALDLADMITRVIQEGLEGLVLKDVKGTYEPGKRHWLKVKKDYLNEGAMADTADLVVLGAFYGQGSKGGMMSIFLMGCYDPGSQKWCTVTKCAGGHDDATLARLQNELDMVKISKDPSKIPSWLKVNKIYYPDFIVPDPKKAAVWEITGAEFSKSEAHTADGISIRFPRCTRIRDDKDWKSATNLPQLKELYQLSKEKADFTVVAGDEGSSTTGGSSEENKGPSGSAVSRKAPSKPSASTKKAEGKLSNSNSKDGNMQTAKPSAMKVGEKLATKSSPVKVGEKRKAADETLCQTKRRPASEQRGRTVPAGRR
Excerpt: (§1) The ligation assay was done strictly following the assay protocol described in Xi Chen et. al, Cancer Res 2008; 68(9):3169-3177. The DNA molecules 52 mer (5′-3′), 28-mer (5′-3′) and 34-mer (5′-3′) were used to construct a double stranded nicked substrate for the ligase enzyme (FIG. 4). The 34-mer oligo was labelled with 32P-AMP to form a substrate for ligase and to form a ligase-AMP intermediate. During ligation, the ligase would transfer the AMP to the nick forming a phosphodiester bond and seal the nick. The ligated DNA molecule would be larger in size and run higher up on a 7% Urea-containing denaturing acrylamide gel. If an inhibitor is added to the reaction mixture prior to the addition of ligase, this would lead to an inhibition of ligation and a corresponding loss of labelled ligated product in the gel. We would then be able to calculate the percentage of inhibition of ligation by estimating the amount of ligated product in the lane with no inhibitor and comparing it with the lanes containing different inhibitor molecules or with the same inhibitor molecule at different concentrations.

human ligase I = human ligase I (Homo sapiens, UniProt P18858); assay: Ligation assay, DNA ligase I; assay type: biochemical
human ligase I, sequence (P18858 whole entry): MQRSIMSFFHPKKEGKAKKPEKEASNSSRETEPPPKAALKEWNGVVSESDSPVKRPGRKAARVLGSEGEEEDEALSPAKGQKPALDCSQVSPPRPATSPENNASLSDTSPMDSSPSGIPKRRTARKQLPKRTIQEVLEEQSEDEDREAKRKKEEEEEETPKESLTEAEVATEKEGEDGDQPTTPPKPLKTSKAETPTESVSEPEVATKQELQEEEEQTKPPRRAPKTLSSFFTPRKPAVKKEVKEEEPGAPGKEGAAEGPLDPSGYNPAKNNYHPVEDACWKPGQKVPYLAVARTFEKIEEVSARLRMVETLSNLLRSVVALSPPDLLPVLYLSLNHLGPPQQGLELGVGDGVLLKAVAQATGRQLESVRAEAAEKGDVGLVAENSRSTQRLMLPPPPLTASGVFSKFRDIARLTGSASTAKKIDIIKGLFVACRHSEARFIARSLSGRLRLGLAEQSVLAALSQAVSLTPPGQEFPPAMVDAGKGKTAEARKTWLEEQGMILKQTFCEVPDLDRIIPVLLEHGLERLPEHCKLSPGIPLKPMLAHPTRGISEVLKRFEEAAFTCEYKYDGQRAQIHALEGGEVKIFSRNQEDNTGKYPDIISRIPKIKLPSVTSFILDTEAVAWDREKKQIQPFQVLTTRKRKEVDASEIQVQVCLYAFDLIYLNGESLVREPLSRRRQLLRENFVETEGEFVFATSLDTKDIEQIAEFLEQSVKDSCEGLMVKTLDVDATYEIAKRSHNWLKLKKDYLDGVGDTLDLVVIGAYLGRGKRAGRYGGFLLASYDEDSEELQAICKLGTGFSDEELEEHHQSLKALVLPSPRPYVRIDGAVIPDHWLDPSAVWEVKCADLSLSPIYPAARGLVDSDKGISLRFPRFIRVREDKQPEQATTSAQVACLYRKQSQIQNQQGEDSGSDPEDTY
Excerpt: as §1

[1] = system: linearized plasmid pUC18 DNA; assay: DNA intercalation assay; assay type: binding; settings: up to 100 μM, compared to doxorubicin
Description: Since there are multiple modes of inhibition of ligase activity, we wanted to determine whether 8k inhibited ligation by direct inhibition alone or through other means as well such as DNA intercalation. DNA intercalation assay was performed as described by Furlan et al., Biotechnol. Lett. 2002, 24, 1807-1813. We incubated 100 ng of linearized plasmid pUC18 DNA with increasing concentrations (50, 100, 200 μM) of Doxorubicin (positive control), ampicillin (negative control), and 8k for 30 minutes at 37° C. Reaction products were resolved on a 1% agarose gel at 5.3 V/cm. Gel was visualized by ethidium bromide staining.

ligase IV = ligase IV (Homo sapiens, UniProt P49917); assay: Ligation assay, DNA ligase IV; assay type: biochemical
ligase IV, sequence (P49917 whole entry): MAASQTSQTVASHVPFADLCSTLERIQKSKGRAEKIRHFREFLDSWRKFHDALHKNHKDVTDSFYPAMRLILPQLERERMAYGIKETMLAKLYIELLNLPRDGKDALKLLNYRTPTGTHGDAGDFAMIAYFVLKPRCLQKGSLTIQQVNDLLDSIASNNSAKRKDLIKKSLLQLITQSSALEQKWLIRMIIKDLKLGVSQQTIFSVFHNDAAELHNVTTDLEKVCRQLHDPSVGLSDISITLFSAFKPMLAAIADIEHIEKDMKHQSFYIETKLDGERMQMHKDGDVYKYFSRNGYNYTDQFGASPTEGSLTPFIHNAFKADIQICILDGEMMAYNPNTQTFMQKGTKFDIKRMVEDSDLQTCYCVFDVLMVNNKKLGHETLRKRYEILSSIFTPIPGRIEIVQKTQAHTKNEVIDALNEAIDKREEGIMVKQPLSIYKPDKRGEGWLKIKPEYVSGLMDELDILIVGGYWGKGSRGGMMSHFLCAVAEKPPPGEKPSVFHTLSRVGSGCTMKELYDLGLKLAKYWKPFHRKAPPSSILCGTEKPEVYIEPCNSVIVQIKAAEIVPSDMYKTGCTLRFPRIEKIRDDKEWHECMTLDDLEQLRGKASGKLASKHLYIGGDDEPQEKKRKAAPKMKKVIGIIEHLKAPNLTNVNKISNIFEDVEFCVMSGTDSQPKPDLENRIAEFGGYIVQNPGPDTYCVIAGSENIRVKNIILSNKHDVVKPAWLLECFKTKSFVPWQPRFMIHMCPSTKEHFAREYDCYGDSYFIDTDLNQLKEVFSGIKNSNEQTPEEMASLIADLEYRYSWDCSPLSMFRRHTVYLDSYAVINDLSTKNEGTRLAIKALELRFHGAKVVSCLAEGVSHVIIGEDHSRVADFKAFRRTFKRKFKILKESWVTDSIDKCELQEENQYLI
ligase IV, sequence (Q13426 whole entry partner): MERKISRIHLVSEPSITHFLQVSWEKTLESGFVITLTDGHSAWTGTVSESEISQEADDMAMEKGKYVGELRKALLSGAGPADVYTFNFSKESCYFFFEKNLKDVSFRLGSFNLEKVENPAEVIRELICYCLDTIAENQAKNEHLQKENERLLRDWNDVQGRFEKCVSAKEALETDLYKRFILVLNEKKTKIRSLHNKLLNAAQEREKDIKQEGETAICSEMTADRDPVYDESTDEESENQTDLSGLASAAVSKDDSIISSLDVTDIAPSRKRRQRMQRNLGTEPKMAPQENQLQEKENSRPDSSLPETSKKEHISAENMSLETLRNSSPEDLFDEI
Excerpt: as §1

HepG2 cells = assay: Apoptosis, annexin V/PI staining by flow cytometry; assay type: cell-based, human; settings: HepG2, 24 h
Description: Quantitation of apoptotic cells by annexin V staining was carried out according to the manufacturer's instructions. Briefly, cells (5×10^5 cells/well) were seeded in 6 well plates and treated with 5 μM of 8h-8k for 24 h. After incubation, cells were washed with PBS and stained with 1.25 μL of annexin V-FITC and 10 μL of media binding reagent and incubated for 20 min. After that 10 μL of PI was added and samples were analyzed using a flow cytometer. Annexin V-FITC was analyzed using excitation and emission settings of 488 nm and 535 nm (FL-1 channel); PI, 488 nm and 610 nm (FL-2 channel). Debris and clumps were gated out using forward and orthogonal light scatter. Each experiment was repeated two times independently. Results are illustrated in FIG. 1 and the percentage of Annexin-V/PI positive cells increased gradually from 20 to 70% after 24 h of treatment (FIG. 1).

For CCCCCCCCCCCC[N+](C)(CCCCCCCCCCCC)CC(=O)NC1CCC(=O)N(CC(=O)c2ccccc2)C1=O (stereo not drawn) [Compound 8k, {[2,6-Dioxo-1-(2-oxo-2-phenyl-ethyl)-piperidin-3-ylcarbamoyl]-methyl}-Didodecyl-methyl-ammonium iodide], the inhibition at 5 µM (ligase IIIβ; 5 μM) was < 50%, the “ligase III inhibition” value (ligase IIIβ; at concentrations that kill HepG2 cells) was 30% and the inhibition at 1 µM (human ligase I; 1 μM) was ~50%. For the same molecule, the “inhibition of ligase I activity” value (human ligase I; 10 μM) was “complete inhibition”, the “DNA ligase I / ligation inhibition (in words)” value (human ligase I; screening, FIG. 4 and FIG. 7) was “most prolific inhibitor of ligation; also recorded: inhibition of DNA ligase I activity; also recorded: showed inhibition of DNA ligation” and the DNA intercalation [1] was “no appreciable intercalation”. The “inhibition of ligase IV” value (ligase IV; 5 μM) was “No appreciable inhibition”, the “effect on ligase IV activity” value (ligase IV; even at higher concentrations) was “no effect” and the “apoptosis induction (in words)” value (HepG2 cells) was “induced significant amount of apoptosis”.

Source: patent US10266564B2, “Cationic lipid cordiarimide hybrid compounds and a process for preparation thereof” (COUNCIL OF SCIENTIFIC & INDUSTRIAL RESEARCH, priority 2014, dated 2019)
